In the supplement of paper PMC10307832:

Assays:
Assay in all cases: relative viability (nuclei count vs DMSO), 5 days (fraction); higher = more cells survive
[1] = compound: C=C(c1ccc(C(=O)O)cc1)c1cc2c(cc1C)C(C)(C)CCC2(C)C [Bexarotene] + O=C(c1cc(Cc2n[nH]c(=O)c3ccccc23)ccc1F)N1CCN(C(=O)C2CC2)CC1 [Olaparib] (partner 8 µM)
Outline: (§1)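 Relative viability divides the nuclei count in treated wells by that in vehicle wells. Lung cancer cell lines were seeded in 1536-well plates, dosed by pin tool the next day, and fixed and stained after 5 days in one step with final 0.05% Triton X-100, 1% formaldehyde and 1 ug/ml Hoechst. Dosing was a single drug or a fixed anchor-drug dose plus five library-drug doses (not always all listed) in √10 steps, and values are medians of duplicate plates imaged at 4×.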

[2] = compound: C=C(c1ccc(C(=O)O)cc1)c1cc2c(cc1C)C(C)(C)CCC2(C)C [Bexarotene] + NC(=O)Nc1cc(-c2cccc(F)c2)sc1C(=O)N[C@H]1CCCNC1 [AZD7762] (partner 0.2 µM)
Outline: as §1

[3] = compound: C=C(c1ccc(C(=O)O)cc1)c1cc2c(cc1C)C(C)(C)CCC2(C)C [Bexarotene] + CS(=O)(=O)CCNCc1ccc(-c2ccc3ncnc(Nc4ccc(OCc5cccc(F)c5)c(Cl)c4)c3c2)o1 [Lapatinib] (partner 2 µM)
Outline: as §1

[4] = compound: C=C(c1ccc(C(=O)O)cc1)c1cc2c(cc1C)C(C)(C)CCC2(C)C [Bexarotene] + Nc1ncn([C@H]2C[C@H](O)[C@@H](CO)O2)c(=O)n1 [Decitabine] (partner 2 µM)
Outline: as §1

Row | Cell Line | relative viability ([1]; first compound 0.08 µM) | relative viability ([1]; first compound 0.253 µM) | relative viability ([1]; first compound 0.8 µM) | relative viability ([1]; first compound 2.53 µM) | relative viability ([1]; first compound 8 µM) | relative viability ([2]; first compound 0.08 µM) | relative viability ([2]; first compound 0.253 µM) | relative viability ([2]; first compound 0.8 µM) | relative viability ([2]; first compound 2.53 µM) | relative viability ([2]; first compound 8 µM) | relative viability ([3]; first compound 0.08 µM) | relative viability ([3]; first compound 0.253 µM) | relative viability ([3]; first compound 0.8 µM) | relative viability ([3]; first compound 2.53 µM) | relative viability ([3]; first compound 8 µM) | relative viability ([4]; first compound 0.08 µM) | relative viability ([4]; first compound 0.253 µM) | relative viability ([4]; first compound 0.8 µM) | relative viability ([4]; first compound 2.53 µM) | relative viability ([4]; first compound 8 µM)
1 | HCC-827 | 0.714 | 0.637 | 0.763 | 0.666 | 0.625 | 0.227 | 0.213 | 0.405 | 0.196 | 0.36 | 0.274 | 0.159 | 0.185 | 0.196 | 0.196 | 0.396 | 0.311 | 0.33 | 0.298 | 0.335
2 | HOP-62 | 0.452 | 0.711 | 0.56 | 0.43 | 0.371 | 0.626 | 1.04 | 0.718 | 0.412 | 0.669 | 1.02 | 1.09 | 0.943 | 1.14 | 1.1 | 0.222 | 0.183 | 0.183 | 0.164 | 0.208
3 | IA-LM | 0.752 | 0.707 | 0.675 | 0.576 | 0.63 | – | – | – | – | – | – | 0.773 | 0.68 | 0.536 | 0.694 | – | – | – | – | –
4 | LC-2-ad | 0.711 | 0.693 | 0.663 | 0.541 | 0.661 | 0.87 | 0.907 | 0.875 | 0.867 | 0.928 | 0.993 | 1.09 | 1.07 | 0.994 | 0.997 | 0.805 | 0.85 | 0.853 | 0.772 | 0.813
5 | LCLC-103H | 0.827 | 0.896 | 0.699 | 0.779 | 0.825 | 0.807 | 0.78 | 0.64 | 0.796 | 0.842 | – | – | – | – | – | 0.811 | 0.701 | 0.689 | 0.795 | 0.742
6 | NCI-H441 | 0.608 | 0.61 | 0.628 | 0.599 | 0.495 | 1.5 | 1.28 | 1.24 | 1.1 | 1.01 | – | – | – | – | – | 0.3 | 0.283 | 0.236 | 0.229 | 0.279
7 | NCI-H520 | 0.368 | 0.347 | 0.313 | 0.316 | 0.332 | – | – | – | – | – | 1.12 | 0.793 | 0.577 | 0.875 | 0.71 | 0.499 | 0.473 | 0.552 | 0.52 | 0.51
8 | NCI-H522 | 0.666 | 0.66 | 0.635 | 0.564 | 0.675 | 0.788 | 0.949 | 0.734 | 0.697 | 0.822 | – | – | – | – | – | 0.642 | 0.666 | 0.653 | 0.673 | 0.609
9 | NCI-H661 | 0.769 | 0.756 | 0.73 | 0.751 | 0.707 | – | – | – | – | – | 0.432 | 0.554 | 0.477 | 0.516 | 0.513 | 0.606 | 0.542 | 0.559 | 0.509 | 0.496
10 | NCI-H1563 | – | – | – | – | – | – | – | – | – | – | 1.09 | 0.945 | 0.799 | 0.903 | 0.891 | – | – | – | – | –
11 | NCI-H1648 | 0.927 | 1.34 | 0.712 | 0.766 | 0.685 | 0.615 | 0.57 | 0.623 | 0.695 | 0.627 | – | – | – | – | – | 0.489 | 0.409 | 0.451 | 0.36 | 0.465
12 | NCI-H1650 | 0.769 | 0.674 | 0.797 | 0.697 | 0.7 | – | – | – | – | – | 0.813 | 0.707 | 0.871 | 0.659 | 0.745 | 0.447 | 0.453 | 0.438 | 0.403 | 0.45
13 | NCI-H1703 | 0.532 | 0.494 | 0.483 | 0.386 | 0.377 | 0.157 | 0.128 | 0.127 | 0.115 | 0.119 | 1.14 | 1.11 | 0.802 | 0.834 | 0.762 | – | – | – | – | –
14 | NCI-H2009 | 0.772 | 0.697 | 0.727 | 0.664 | 0.663 | – | – | – | – | – | 0.794 | 1.14 | 1.06 | 1.06 | 0.999 | 0.404 | 0.394 | 0.373 | 0.404 | 0.364
15 | NCI-H2023 | 0.461 | 0.542 | 0.406 | 0.428 | 0.288 | – | – | – | – | – | 1.03 | 1.14 | 0.979 | 0.63 | 0.595 | 0.224 | 0.218 | 0.214 | 0.197 | 0.205
16 | NCI-H2228 | 0.825 | 0.799 | 0.631 | 0.591 | 0.492 | – | – | – | – | – | 1.55 | 0.935 | 0.763 | 1.17 | 0.909 | – | – | – | – | –
17 | NCI-H2342 | 0.425 | 0.52 | 0.481 | 0.407 | 0.583 | 0.545 | 0.5 | 0.494 | 0.488 | 0.718 | – | – | – | – | – | 0.815 | 0.736 | 0.76 | 0.807 | 0.728
18 | SK-LU-1 | 0.557 | 0.43 | – | 0.417 | 0.399 | – | – | – | – | – | 0.938 | 0.955 | – | 1 | 0.692 | 0.668 | 0.676 | – | 0.588 | 0.599
19 | SK-MES-1 | 0.798 | 0.832 | 0.696 | 0.628 | 0.564 | – | – | – | – | – | 0.512 | 0.45 | 0.565 | 0.558 | 0.509 | 0.43 | 0.379 | 0.423 | 0.294 | 0.3
20 | SW 900 | 0.936 | 0.733 | 1.11 | 0.866 | 0.863 | 0.652 | 0.511 | 0.453 | 0.518 | 0.454 | – | – | – | – | – | 0.463 | 0.397 | 0.498 | 0.448 | 0.462
21 | SW 1573 | 0.537 | 0.461 | 0.499 | 0.445 | 0.41 | – | – | – | – | – | 1.09 | 1 | 1.1 | 0.919 | 0.916 | 0.505 | 0.43 | 0.482 | 0.452 | 0.363
22 | UMC-11 | 0.387 | 0.425 | 0.525 | 0.353 | 0.37 | – | – | – | – | – | 0.943 | 0.907 | 0.894 | 0.803 | 0.916 | 0.605 | 0.589 | 0.604 | 0.634 | 0.539
